Where two headings read alike, the source gives them in different places.
Columns and labels:
Format in all cases: binding, sheep
[1] = tested on: antibodies raised against immunogen 2b; experiment: Competitive ELISA cross-reactivity, for both antibodies; details: cross reactants 100ng/ml; tracer 1 (C7); (±)-CP-47,497 (C8 homologue) as standard
Protocol: (§1) The wells of an enhanced binding 96 well polystyrene microtiter plate were coated with IgG fraction of antiserum (Antibody 4.1 or antibody 4.2) raised to Immunogen 4 in separate host animals, diluted in 10mM Tris, pH8.5 (125µl/well). The appropriate antibody coating dilution was determined using standard ELISA checkerboard techniques. The plate was incubated overnight at 4°C, washed 4 times over 10 minutes with Tris buffered saline containing Tween 20 (TBST) and tapped dry.
(§2) Standard solutions of CP47,497 -C8 were prepared in TBST at 0, 2.5, 5, 10, 20, 40, 80 and 160ng/ml for Antibody 4.1, and at 0, 5, 10, 20, 40, 80, 160 and 320ng/ml for Antibody 4.2, and 50µl of each was added to the appropriate wells. 75µl of conjugate (Hapten 1-HRP - tracer 1 - see Figure 4) diluted in Tris buffer (pH 7.2) containing EDTA, D-mannitol, sucrose, thimerosal and BSA, was added to each of the wells. The appropriate dilution of conjugate was also determined using standard ELISA checkerboard techniques. The plate was incubated at 25°C for 1 hour. Excess unbound conjugate was removed by washing 6 times over a 10 minute period with TBST. 125µl of tetramethylbenzidine (TMB) substrate solution was added to each well of the plate that was then incubated for 20 minutes in the dark at room temperature. The reaction was terminated by addition of 125µl 0.2M H2SO4 to each well. The absorbance was then measured at 450nm using a microtiter plate reader.
(§3) In order to determine the specificity of the competitive ELISAs, standard solutions of a range of structurally similar compounds were prepared in TBST. Using the calibration curves generated and employing a single level of cross reactants (100ng/ml), these were used to determine the cross-reactivity of each immunoassay with these substances. The results of this study are presented in Table 2, as %B/B0, employing antisera raised against Immunogen 2b (C8), tracer 1 (C7) and (±)-CP-47,497 (C8 homologue) as standard.

Antibody 4.2 = tested on: Antibody 4.2
Protocol: as §1, §2, §3

Antibody 4.1 = tested on: Antibody 4.1
Protocol: as §1, §2, §3

[2] = Cross-reactants at 100ng/ml, tracer 1 (C7), (±)-CP-47,497 (C8 homologue) as standard
[3] = standard 5 ng/ml, tracer 1 (C7)
[4] = standard 10 ng/ml, tracer 1 (C7)
[5] = standard 20 ng/ml, tracer 1 (C7)
[6] = standard 40 ng/ml, tracer 1 (C7)
[7] = standard 80 ng/ml, tracer 1 (C7)
[8] = standard 160 ng/ml, tracer 1 (C7)
[9] = standard concentration which produces 50% B/B0, tracer 1 (C7)

Compound: CCCCCCC(C)(C)c1ccc([C@@H]2C[C@H](O)CC[C@H]2CCCO)c(O)c1 (racemic) [(+-)-CP 55,940]
- %B/B0 [1]: greater than 80%
- %B/B0 (Antibody 4.2; [2]): 97.34%
- %B/B0 (Antibody 4.1; [2]): 93.65%

Compound: CCCCCCC(C)(C)c1ccc([C@H]2CCC[C@@H](O)C2)c(O)c1 (racemic) [(±)-CP-47,497 (C7 homologue)]
- %B/B0 [1]: less than 50%
- %B/B0 (Antibody 4.2; [2]): 48.85%
- %B/B0 (Antibody 4.1; [2]): 37.14%

Compound: CCCCCCC(C)(C)C1=CC(=O)C(C2CCCC(O)C2)=CC1=O (racemic) [(±)-CP-47,497 (C7 para quinone analogue)]
- %B/B0 [1]: greater than 80%
- %B/B0 (Antibody 4.2; [2]): 89.82%
- %B/B0 (Antibody 4.1; [2]): 82.66%

Compound: CCCCCCCC(C)(C)c1ccc(C2CCCC(O)C2)c(O)c1 (racemic) [(±)-CP-47,497 (C8 homologue)]
- %B/B0 [1]: less than 50%
- %B/B0 (Antibody 4.2; [2]): 49.65%
- %B/B0 (Antibody 4.2; [3]): 88%
- %B/B0 (Antibody 4.2; [4]): 82%
- %B/B0 (Antibody 4.2; [5]): 72%
- %B/B0 (Antibody 4.2; [6]): 63%
- %B/B0 (Antibody 4.2; [7]): 52%
- %B/B0 (Antibody 4.2; [8]): 44%
- %B/B0 (Antibody 4.2; standard 320 ng/ml, tracer 1 (C7)): 37%
- IC50 (Antibody 4.2; [9]): 0.095992 µg/mL
- %B/B0 (Antibody 4.1; [2]): 36.52%
- %B/B0 (Antibody 4.1; standard 2.5 ng/ml, tracer 1 (C7)): 82%
- %B/B0 (Antibody 4.1; [3]): 72%
- %B/B0 (Antibody 4.1; [4]): 60%
- %B/B0 (Antibody 4.1; [5]): 51%
- %B/B0 (Antibody 4.1; [6]): 43%
- %B/B0 (Antibody 4.1; [7]): 38%
- %B/B0 (Antibody 4.1; [8]): 34%
- IC50 (Antibody 4.1; [9]): 0.020922 µg/mL

Compound: CCCCCc1cc(O)c2c(c1)OC(C)(C)[C@@H]1CCC(C)=C[C@@H]21 [Delta 9 THC]
- %B/B0 (Antibody 4.2; [2]): 94.09%
- %B/B0 (Antibody 4.1; [2]): 96.44%

Compound: CCCCCCC(C)(C)c1cc(O)c2c(c1)OC(C)(C)[C@@H]1CC=C(CO)C[C@@H]21 [HU-210]
- %B/B0 [1]: greater than 80%
- %B/B0 (Antibody 4.2; [2]): 92.94%
- %B/B0 (Antibody 4.1; [2]): 96.01%

Compound: CCCCCCC(C)(C)c1cc(O)c2c(c1)OC(C)(C)[C@H]1CC=C(CO)C[C@H]21 [HU-211 (Dexanabinol), Dexanabinol]
- %B/B0 [1]: greater than 80%
- %B/B0 (Antibody 4.2; [2]): 95.84%
- %B/B0 (Antibody 4.1; [2]): 96.76%

Compound: CCCCCCC(C)(C)c1cc(OC)c([C@@H]2C=C(CO)[C@@H]3C[C@H]2C3(C)C)c(OC)c1 [HU-308]
- %B/B0 (Antibody 4.2; [2]): 94.81%
- %B/B0 (Antibody 4.1; [2]): 98.37%

Compound: (+)-CP 55,940
- %B/B0 [1]: greater than 80%
- %B/B0 (Antibody 4.2): 96.91%
- %B/B0 (Antibody 4.1): 95.98%

Compound: (-)-11-nor-9-Carboxy-delta9-THC
- %B/B0 (Antibody 4.2): 94.38%
- %B/B0 (Antibody 4.1): 95.23%

Compound: (-)-CP 55,940
- %B/B0 [1]: greater than 80%
- %B/B0 (Antibody 4.2): 97.23%
- %B/B0 (Antibody 4.1): 91.26%
